Activity calls are given as the source filed them. The calls are words filed in the database; no cut-off is given here.

For orientation: CC50 means the concentration at which the toxic effect on the cells reaches its halfway point. A higher CC50 goes with lower toxicity to the cells. A word on the inhibition: it is the percentage by which the read-out fell short of the control. A word on the EC50: it is the concentration at which the effect is half-maximal. A low value points to greater potency.

Series [1] can be described thus: Cytotoxicity against human HuH7 cells. The format is cell-based, Huh-7.
The test system of series [2] is Hepatitis C virus subtype 1b. In words: Inhibition of HCV genotype 1b NS5B RNA dependent RNA polymerase activity at 20 uM.
In a further series the test system is Hepatitis C virus. Put plainly: Antiviral activity against HCV in human HuH7 cells by replicon assay. Format: functional, organism-based, Hepacivirus hominis. Conditions: Huh-7; for Activity: Hepacivirus hominis. A general note: A replicon is a self-replicating genome or part of one, used to study replication in cells.

Turning to `O=C(Nc1cccc(Br)c1)c1ccc(Br)c(S(=O)(=O)Nc2ccccn2)c1`, in series [1], the CC50 was above 50 µM. Still for that read-out and setting: the value for `Cc1ccc(C(=O)Nc2ccc(F)cc2)cc1S(=O)(=O)N1CCOCC1` was 16.5 µM. In series [1], `Cn1ncc([N+](=O)[O-])c1C(=O)Nc1ccc2[nH]c(-c3ccccc3)nc2c1` yielded a CC50 of 34.5 µM. This compound registered an inhibition in series [2] of 54%. Further, the response in the series with Hepatitis C virus was half-maximal at 2.16 µM (EC50). In the case of `CC(=O)Nc1ccc2[nH]c(-c3ccco3)nc2c1`, the CC50 in series [1] came to 25 µM. The same compound yielded an inhibition in series [2] of 42%. Besides, the outcome in the series with Hepatitis C virus was inactive. Take `CS(=O)(=O)N(Cc1ccccc1)c1ccc(C(=O)NCc2ccco2)cc1`: the CC50 in series [1] was determined as 32.7 µM. In series [2], the inhibition turned out to be 8%. `COc1cc(/C=N/Nc2nc3ccccc3s2)ccc1OC(=O)c1ccco1`: in series [1], the midpoint of cytotoxicity, the CC50, lay at 30.5 µM. For the compound `COC(=O)c1ccc(C(=O)OC)c(NS(C)(=O)=O)c1`, the CC50 in series [1] came out at 43.5 µM.

In series [1], `O=C(Nc1ccc(NC(=O)c2cccs2)cc1Cl)c1ccco1` showed a CC50 of 18 µM. Compared with the last compound, the CC50 is about 2.4-fold lower. `CCC(=O)Nc1ccc(SC#N)c(C(F)(F)F)c1` returned a CC50 in series [1] of 45.8 µM. In series [2], the inhibition was found to be 9%. Regarding `O=C(Nc1ccc2[nH]c(-c3ccccc3)nc2c1)c1ccco1`, the CC50 in series [1] was below 5 µM. In addition, in series [2], the inhibition entry was “inactive”. Further, in the series on Hepatitis C virus, the result was inactive. For `CCCS(=O)(=O)c1ccc2[nH]c(NC(=O)OC)nc2c1`, in series [1], the CC50 was below 5 µM.

In series [1], `O=C(Nc1ccc2[nH]c(-c3ccccn3)nc2c1)c1ccco1` had a CC50 of 20 µM. The compound further registered an inhibition in series [2] of 42.4%. In addition, the result in the series on Hepatitis C virus was inactive. As for `O=C(Nc1ccc(F)cc1)c1ccc(Cl)c(S(=O)(=O)N2CCOCC2)c1`, in series [1], half-maximal cytotoxicity (CC50) was put at 15.6 µM. In series [1], `O=C(Nc1ccc2[nH]c(-c3ccc(Cl)cc3)nc2c1)C1C2CC3CC(C2)CC1C3` (centres undefined) displayed a CC50 below 5 µM. The inhibition result in series [2] is “inactive”. Also, in the series on Hepatitis C virus, the result was inactive. Regarding `Cn1ncc(Cl)c1C(=O)Nc1ccc2[nH]c(-c3ccccc3)nc2c1`, the CC50 in series [1] was below 5 µM. Also, in series [2], the inhibition turned out to be 14%. Further, the result with Hepatitis C virus was inactive. As for `C=CCNS(=O)(=O)c1ccc(OC)c(OC)c1`, in series [1], the CC50 stood at 48.6 µM.

In series [1], `CC(=O)Nc1ccc2[nH]c(-c3cccs3)nc2c1` registered a CC50 of 20 µM. In series [2], this compound had an inhibition of 18.5%. In the series with Hepatitis C virus, the outcome was inactive. Turning to `C=C(C)C(=O)Nc1ccc(NC(=O)C(=C)C)c(OC(F)(F)C(F)F)c1`, the CC50 in series [1] stood at 29 µM. The inhibition in series [2] worked out at 48%. Besides, the result in the series on Hepatitis C virus was inactive. On to `O=C(O)CNC(=O)/C(=C\c1cccc([N+](=O)[O-])c1)NC(=O)c1ccc(Br)o1`, for which, in series [1], the CC50 is above 50 µM. On the same count and under the same terms, next, `C=CCNC(=O)c1ccc(CN(c2cccc(Cl)c2)S(C)(=O)=O)cc1`: 33 µM.

As for `O=C(Nc1ccc2[nH]c(-c3cccnc3)nc2c1)c1ccco1`, the CC50 in series [1] amounted to 20 µM. In addition, the outcome in the series with Hepatitis C virus was inactive. In series [1], `CC(=O)Nc1ccc2nc(-c3ccccn3)[nH]c2c1` returned a CC50 of 24.8 µM. That is a double-digit micromolar value. Compound `Nc1ccc(C(=O)Nc2ccc3[nH]c(-c4ccccc4)nc3c2)cc1` had a CC50 in series [1] below 5 µM. In series [2], the inhibition is 19.7%. Moreover, the result in the series on Hepatitis C virus was inactive. In series [1], `Cn1cc([N+](=O)[O-])c(C(=O)Nc2ccc3[nH]c(-c4ccccc4)nc3c2)n1` yielded a CC50 of 17.3 µM. In series [2], this compound had an inhibition of 37.7%. Besides, the response in the series with Hepatitis C virus was half-maximal at 8.3 µM (EC50). In the case of `CC(=O)Nc1ccc2[nH]c(-c3ccccn3)nc2c1`, the outcome with Hepatitis C virus was inactive. `O=C1NN(c2ccc(Cl)c(Cl)c2)C(=O)/C1=C/c1ccc(N2CCOCC2)c([N+](=O)[O-])c1` showed a CC50 in series [1] of 27 µM. This compound also returned an inhibition in series [2] of 13%. With `COC(=O)c1ccc(C(=O)Nc2ccc3[nH]c(-c4ccccc4)nc3c2)cc1`, in series [1], the CC50 was below 5 µM. In series [2], this compound displayed an inhibition of 90%. Further, the result with Hepatitis C virus was inactive. In series [1], `CCOc1cc(NC(=O)c2ccco2)c(OCC)cc1NC(=O)CC` gave a CC50 of 36.1 µM. `O=C(Nc1ccc2[nH]c(-c3ccccc3)nc2c1)c1ccccc1` yielded a CC50 in series [1] of 20 µM. Also, the inhibition in series [2] was 20%. Moreover, in the series with Hepatitis C virus, the result was inactive. The compound `CCOc1cc(NC(=O)CCl)c(OCC)cc1NC(C)=O` had a CC50 in series [1] above 50 µM.

The compound `O=C(COc1ccccc1Cl)Nc1ccc(Oc2ccc(F)cc2)c(C(F)(F)F)c1` gave a CC50 in series [1] of 14.2 µM.
